Strand notation (5' to 3'): a small letter for the sugar, then the base; units joined by * are phosphorothioate-linked, units joined directly phosphodiester-linked; [ ] holds rarer units or linkages, { } end groups; capitals alone tell only the bases. e = 2'-O-(2-methoxyethyl) (MOE); [5mC] = 5-methylcytosine; d = 2'-deoxy (DNA)
How the values were obtained:
JNK1 mRNA = assay: Northern assay, JNK1 mRNA expression in A549 cells; type: cell-based, human; details: for dose- and sequence-dependent response on JNK1 mRNA levels: A549 cells, 50, 100, 200 and 400 nM; for RNA % Inhibition: JNK1 mRNA
rat JNK2 mRNA = assay: Northern assay, rat JNK2 (p54a) mRNA in A10 cells; type: cell-based; details: for inhibition of rat JNK2 mRNA levels: Table 22; for capacity to modulate both JNK1 and JNK2 (Pan JNK): rat JNK1 and JNK2 mRNA
Procedure: (§1) In order to study the role of JNK proteins in animal models, oligonucleotides targeted to the genes encoding JNK1, JNK2 and JNK3 of Rattus norvegicus were prepared. These oligonucleotides are 2′-methoxyethoxy, phosphodiester/2′-hydroxyl, phosphorothioate/2′-methoxyethoxy, phosphodiester “gapmers” in which every cytosine residue is 5-methylcytosine (msc). These antisense compounds were synthesized according to the methods of the disclosure. Certain of these oligonucleotides are additionally specifically hybridizable to JNK genes from other species as indicated herein. The oligonucleotides described in this Example were tested for their ability to modulate rat JNK mRNA levels essentially according to the methods described in the preceding Examples, with the exceptions that the cell line used was rat A10 aortic smooth muscle cells (ATCC No. ATCC CRL-1476) and the probes used were specific for rat JNK1, JNK2 or JNK3 (see infra). A10 cells were grown and treated with oligonucleotides essentially as described by (Cioffi et al. Mol. Pharmacol., 1997, 51, 383).
(§2) These antisense compounds were tested for their ability to modulate levels of p54? (JNK1) and p54a (JNK2) mRNA in A10 cells via Northern assays. Due to the high degree of sequence identity between the human and rat genes, radiolabeled human JNK1 (Example 3) and JNK2 (Example 4) cDNAs functioned as specific probes for the rat homologs.
These antisense compounds were tested for their ability to modulate levels of p54a (JNK2) mRNA in A10 cells using the radiolabeled human JNK2 cDNA as a probe as described supra. Oligonucleotides showing levels of inhibition from≧about 60% to about 100% of rat JNK2 mRNA levels include ISIS Nos. 18254, 18255, 18257, 18258, 18259, 18260 and 18265 (SEQ ID NOS:125, 126, 128, 129, 130, 131 and 136, respectively). These oligonucleotides are preferred embodiments of the invention for modulating rat JNK2 expression. […] These oligonucleotides are thus more preferred embodiments of the invention for modulating rat JNK2 expression. ISIS 18259 (SEQ ID NO:130) was chosen for use in further studies (infra).
(§3) A dose response study was conducted using oligonucleotides targeted to rat JNK1 (ISIS 21859; SEQ ID NO:113) and JNK2 (ISIS 18259; SEQ ID NO:130) and Northern assays.

rat JNK1 mRNA = assay: Northern assay, rat JNK1 (p54?) mRNA in A10 cells; type: cell-based; details: for inhibition of rat JNK1 mRNA levels: Table 20
Procedure: as §1, §2, §3

[1] = t = 48 h, 300 nM for initial 20 hours then 200 nM for 4 hours

C^sT^sT^sT^sC^sC^sG^sT^sT^sG^sG^sA^sC^sC^sC^sC^sT^sG^sG^sG (dC*dT*dT*dT*dC*dC*dG*dT*dT*dG*dG*dA*dC*dC*dC*dC*dT*dG*dG*dG; further chemistry not given here) [ISIS 14321, reference compound]
dose- and sequence-dependent response on JNK1 mRNA levels (JNK1 mRNA): neither of the control oligonucleotides effect any consistent response

15351 (antisense CTCTCTGTAGGCCCGCTTGG; wingmer, 5' P=O 2'-MOE, chemistry not fully specified) [compound 15351]
RNA % Inhibition (JNK1 mRNA; [1]): > 70%

15350 (antisense CTCTCTGTAGGCCCGCTTGG; wingmer, 3' P=O 2'-MOE, chemistry not fully specified) [compound 15350]
RNA % Inhibition (JNK1 mRNA; [1]): 50.8%

18265 (antisense eTeGeTe[5mC]eA*dG*d[5mC]*dT*d[5mC]*dT*dA*d[5mC]*dA*dT*dT*eAeGeGe[5mC]eA) [compound 18265]
inhibition of rat JNK2 mRNA levels (rat JNK2 mRNA; A10 cells): ≥ 60%

18257 (antisense eGeAeTeAeT*d[5mC]*dA*dA*d[5mC]*dA*dT*dT*d[5mC]*dT*d[5mC]*e[5mC]eTeTeGeT) [compound 18257]
inhibition of rat JNK2 mRNA levels (rat JNK2 mRNA; A10 cells): ≥ 60%

18259 (antisense eGe[5mC]eTe[5mC]eA*dG*dT*dG*dG*dA*d[5mC]*dA*dT*dG*dG*eAeTeGeAeG) [compound 18259]
dose response, levels of mRNA encoding rat JNK2 (rat JNK2 mRNA; A10 cells, Northern assays): specifically modulate

15348 (antisense CTCTCTGTAGGCCCGCTTGG; wingmer, 5' 2'-MOE, phosphorothioate, chemistry not fully specified) [compound 15348]
RNA % Inhibition (JNK1 mRNA; [1]): > 70%
RNA % Inhibition (JNK1 mRNA; t = 72 h): > 70%

21861 (antisense CGGTAGGCTCGCTTAGCATG; 2'-O-methyl wings, phosphorothioate gap, chemistry not fully specified) [compound 21861]
capacity to modulate both JNK1 and JNK2 (Pan JNK) (rat JNK2 mRNA; A10 cells): demonstrated a capacity to modulate both JNK1 and JNK2
inhibition of rat JNK1 mRNA levels (rat JNK1 mRNA): at least 90%

18260 (antisense eAeTe[5mC]eTeG*d[5mC]*dG*dA*dG*dG*dT*dT*dT*d[5mC]*dA*eTe[5mC]eGeGe[5mC]) [compound 18260]
inhibition of rat JNK2 mRNA levels (rat JNK2 mRNA; A10 cells): ≥ 60%
% Inhibition (rat JNK2 mRNA; rat JNK2 (p54a) mRNA in A10 cells, control = LIPOFECTIN only = 0%): 59%
% EXPRESSION (rat JNK2 mRNA; rat JNK2 (p54a) mRNA in A10 cells, control = LIPOFECTIN only = 100%): 41%

21858 (antisense CCTGCTCGCGGCTCCGCGTT; 2'-O-methyl wings, phosphorothioate gap, chemistry not fully specified) [compound 21858]
inhibition of rat JNK1 mRNA levels (rat JNK1 mRNA): at least 90%

C^sC^sA^sA^sG^sC^sG^sG^sG^sC^sC^sT^sA^sC^sA^sG^sA^sG^sA^sG (sense dC*dC*dA*dA*dG*dC*dG*dG*dG*dC*dC*dT*dA*dC*dA*dG*dA*dG*dA*dG) [ISIS 14320, reference compound]
dose- and sequence-dependent response on JNK1 mRNA levels (JNK1 mRNA): neither of the control oligonucleotides effect any consistent response

21865 (antisense CCATTTCTCCCATAATGCAC; 2'-O-methyl wings, phosphorothioate gap, chemistry not fully specified) [compound 21865]
inhibition of rat JNK1 mRNA levels (rat JNK1 mRNA): at least 90%

21860 (antisense TGTTGTCACGTTTACTTCTG; 2'-O-methyl wings, phosphorothioate gap, chemistry not fully specified) [compound 21860]
inhibition of rat JNK1 mRNA levels (rat JNK1 mRNA): at least 90%

21866 (antisense TGAATTCAGGACAAGGTGTT; 2'-O-methyl wings, phosphorothioate gap, chemistry not fully specified) [compound 21866]
inhibition of rat JNK1 mRNA levels (rat JNK1 mRNA): at least 90%

21862 (antisense CTAGGGATTTCTGTGGTGTG; 2'-O-methyl wings, phosphorothioate gap, chemistry not fully specified) [compound 21862]
inhibition of rat JNK1 mRNA levels (rat JNK1 mRNA): at least 90%

21867 (antisense AGCTTCGTCTACGGAGATCC; 2'-O-methyl wings, phosphorothioate gap, chemistry not fully specified) [compound 21867]
capacity to modulate both JNK1 and JNK2 (Pan JNK) (rat JNK2 mRNA; A10 cells): demonstrated a capacity to modulate both JNK1 and JNK2
inhibition of rat JNK1 mRNA levels (rat JNK1 mRNA): at least 90%

21859 (antisense CTCATGATGGCAAGCAATTA; 2'-O-methyl wings, phosphorothioate gap, chemistry not fully specified) [compound 21859]
dose response, levels of mRNA encoding rat JNK1 (rat JNK1 mRNA; Northern assays): specifically modulate levels of mRNA encoding JNK1
inhibition of rat JNK1 mRNA levels (rat JNK1 mRNA): at least 90%

21864 (antisense TCGTTCCTGCAGTCCTTGCC; 2'-O-methyl wings, phosphorothioate gap, chemistry not fully specified) [compound 21864]
inhibition of rat JNK1 mRNA levels (rat JNK1 mRNA): at least 90%

Source: patent publication US6809193B2, “Antisense oligonucleotide compositions and methods for the modulation of JNK proteins” (ISIS Pharmaceuticals, Inc., priority 1997, dated 2004)
